Reference: PubChem BioAssay (NCI)
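48-hour exposure; five concentrations; linearly interpolated endpoints. At the TGI there is no net growth.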

What was measured:
Experiment in all cases: DTP human tumour cell line panel, 48 h
SF-268 CNS = test system: SF-268 CNS
SNB-78 CNS = test system: SNB-78 CNS
DMS 273 small cell lung = test system: DMS 273 small cell lung
SNB-19 CNS = test system: SNB-19 CNS
UACC-62 melanoma = test system: UACC-62 melanoma
HCC-2998 colon = test system: HCC-2998 colon
LXFL 529 NSCLC = test system: LXFL 529 NSCLC
MALME-3M melanoma = test system: MALME-3M melanoma
M19-MEL melanoma = test system: M19-MEL melanoma
OVCAR-8 ovarian = test system: OVCAR-8 ovarian
M14 melanoma = test system: M14 melanoma
DU-145 prostate = test system: DU-145 prostate

| Compound | TGI (SF-268 CNS) | TGI (SNB-78 CNS) | TGI (DMS 273 small cell lung) | TGI (SNB-19 CNS) | TGI (UACC-62 melanoma) | TGI (HCC-2998 colon) | TGI (LXFL 529 NSCLC) | TGI (MALME-3M melanoma) | TGI (M19-MEL melanoma) | TGI (OVCAR-8 ovarian) | TGI (M14 melanoma) | TGI (DU-145 prostate) |
| --- | --- | --- | --- | --- | --- | --- | --- | --- | --- | --- | --- | --- |
| Cc1ccc([Se][Se]c2ccc(C)cc2)cc1 | 88.1 µM | 87.6 µM | 32.4 µM | > 100 µM | 31.7 µM | > 100 µM | 31.7 µM | > 100 µM | 40.6 µM | > 100 µM | – | – |
| O=C1CCC2CCOc3ccc(O)c1c32 (stereo unspecified) | > 100 µM | > 100 µM | > 100 µM | > 100 µM | > 100 µM | > 100 µM | – | > 100 µM | > 100 µM | > 100 µM | > 100 µM | – |
| O=C(/C=C/c1ccc(Cl)cc1)c1ccncc1 | > 100 µM | > 100 µM | > 100 µM | > 100 µM | > 100 µM | > 100 µM | > 100 µM | > 100 µM | 68.7 µM | > 100 µM | > 100 µM | – |
| O=C(O/N=C1/CCCC/C1=C\c1ccccc1)c1ccc(Cl)cc1 | > 100 µM | > 100 µM | > 100 µM | > 100 µM | > 100 µM | 36.2 µM | > 100 µM | > 100 µM | > 100 µM | > 100 µM | > 100 µM | – |
| CC1=N/C(=C\c2ccc([N+](=O)[O-])cc2)C(=O)O1 | > 100 µM | > 100 µM | – | > 100 µM | > 100 µM | > 100 µM | > 100 µM | > 100 µM | > 100 µM | > 100 µM | > 100 µM | – |
| CCOC(=O)C1(C(=O)OCC)CC=C(C)CC12C(=O)Nc1ccccc12 (stereo unspecified) | > 100 µM | – | > 100 µM | > 100 µM | > 100 µM | > 100 µM | > 100 µM | > 100 µM | > 100 µM | > 100 µM | > 100 µM | – |
| CC1=C(c2cc(C(=O)Nc3cccc(C(F)(F)F)c3)nc(NC#N)n2)Sc2ccccc2N1 | > 100 µM | > 100 µM | > 100 µM | > 100 µM | > 100 µM | > 100 µM | > 100 µM | > 100 µM | > 100 µM | – | > 100 µM | – |
| O=C1C=C(Nc2nc(C(=O)O)cc(=O)[nH]2)c2ccccc2C1=O | > 100 µM | – | – | > 100 µM | > 100 µM | > 100 µM | – | > 100 µM | – | > 100 µM | > 100 µM | > 100 µM |
| CN(C)CCNC(=O)c1cccc2c1nc(-c1ccccn1)c1ccccc12 | 61.6 µM | 67.9 µM | 29.9 µM | > 100 µM | 31.4 µM | 32.4 µM | – | – | 32 µM | 34.5 µM | 32.2 µM | – |
| O=C1c2ccccc2C2(O)Oc3cccc(O)c3C12O (stereo unspecified) | > 100 µM | > 100 µM | > 100 µM | > 100 µM | > 100 µM | > 100 µM | > 100 µM | > 100 µM | > 100 µM | > 100 µM | > 100 µM | – |
| C=CCNC(=S)OCCCCCCCCCC | 33.6 µM | 36.7 µM | 37.3 µM | 83.9 µM | 30.2 µM | 31.8 µM | 28.5 µM | 33.8 µM | 32.5 µM | 31.2 µM | 32.7 µM | – |
